Assay [1] addresses T1, human recombinant HDAC6 (Homo sapiens, UniProt Q9UBN7).
T1 construct: purchased Calbiochem 382180
T1 sequence (Q9UBN7 1-1215): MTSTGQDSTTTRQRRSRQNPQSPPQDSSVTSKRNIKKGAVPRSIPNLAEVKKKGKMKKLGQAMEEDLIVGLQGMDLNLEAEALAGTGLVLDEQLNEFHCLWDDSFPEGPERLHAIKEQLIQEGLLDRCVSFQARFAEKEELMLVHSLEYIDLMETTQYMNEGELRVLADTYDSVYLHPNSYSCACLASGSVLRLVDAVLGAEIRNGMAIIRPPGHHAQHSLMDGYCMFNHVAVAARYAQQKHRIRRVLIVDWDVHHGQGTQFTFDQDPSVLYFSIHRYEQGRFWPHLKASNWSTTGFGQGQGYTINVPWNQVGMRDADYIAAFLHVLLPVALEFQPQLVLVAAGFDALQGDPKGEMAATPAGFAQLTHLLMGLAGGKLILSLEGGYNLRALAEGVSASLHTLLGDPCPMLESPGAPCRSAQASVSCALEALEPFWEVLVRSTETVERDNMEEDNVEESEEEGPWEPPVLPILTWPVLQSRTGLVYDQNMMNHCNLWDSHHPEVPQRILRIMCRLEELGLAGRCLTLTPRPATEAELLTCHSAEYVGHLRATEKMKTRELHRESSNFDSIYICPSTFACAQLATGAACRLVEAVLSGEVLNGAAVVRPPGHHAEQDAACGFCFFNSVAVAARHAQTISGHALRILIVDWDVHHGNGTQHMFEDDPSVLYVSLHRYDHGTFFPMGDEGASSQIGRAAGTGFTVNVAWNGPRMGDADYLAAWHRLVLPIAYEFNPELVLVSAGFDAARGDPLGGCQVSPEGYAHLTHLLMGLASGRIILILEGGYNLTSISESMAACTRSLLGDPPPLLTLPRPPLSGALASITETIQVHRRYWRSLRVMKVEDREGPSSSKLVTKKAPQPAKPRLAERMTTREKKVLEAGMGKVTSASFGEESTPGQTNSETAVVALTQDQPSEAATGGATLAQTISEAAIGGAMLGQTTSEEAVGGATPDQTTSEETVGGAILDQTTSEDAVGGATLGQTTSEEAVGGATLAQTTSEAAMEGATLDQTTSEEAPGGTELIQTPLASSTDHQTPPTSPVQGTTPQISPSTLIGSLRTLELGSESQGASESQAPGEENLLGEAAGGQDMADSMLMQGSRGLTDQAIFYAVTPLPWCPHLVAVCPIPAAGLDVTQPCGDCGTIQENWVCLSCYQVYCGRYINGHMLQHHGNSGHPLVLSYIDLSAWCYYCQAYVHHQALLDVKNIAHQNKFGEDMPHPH
Nature of the assay: HDAC6 enzyme activity inhibition assay (in vitro, fluorimetric). The format is biochemical. Particulars: for HDAC6 selectivity (fold): HDAC6 selectivity over HDAC1; for IC50: human recombinant HDAC6, fluorimetric kit, same protocol as HDAC1. An outline of the steps:
(§1)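 Human recombinant enzyme (0.3 μg for HDAC1) reacted with 10 μM Fluor de Lys-SIRT1 substrate and 5-fold compound dilutions at 30 °C for 60 min, then developer for 30 min. Fluorescence read at Ex 360/Em 460; IC50 calculated. HDAC6 run by the same protocol.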

Assay [2] addresses T2, human recombinant HDAC1 (Homo sapiens, UniProt Q13547).
T2 construct: purchased Enzo Life Science BML-SE456
Nature of the assay: HDAC1 enzyme activity inhibition assay (in vitro, fluorimetric). The conditions noted are these: human recombinant HDAC1, fluorimetric kit, 30° C. 60 minutes. The class given is biochemical. Put shortly:
as §1

Data on 20 molecules can be found in patent US10287255B2, “Compounds as histone deacetylase 6 inhibitors and pharmaceutical compositions comprising the same” (CHONG KUN DANG PHARMACEUTICAL CORP., priority 2014, dated 2019).

Structures are written as SMILES.

T2 sequence (Q13547 whole entry): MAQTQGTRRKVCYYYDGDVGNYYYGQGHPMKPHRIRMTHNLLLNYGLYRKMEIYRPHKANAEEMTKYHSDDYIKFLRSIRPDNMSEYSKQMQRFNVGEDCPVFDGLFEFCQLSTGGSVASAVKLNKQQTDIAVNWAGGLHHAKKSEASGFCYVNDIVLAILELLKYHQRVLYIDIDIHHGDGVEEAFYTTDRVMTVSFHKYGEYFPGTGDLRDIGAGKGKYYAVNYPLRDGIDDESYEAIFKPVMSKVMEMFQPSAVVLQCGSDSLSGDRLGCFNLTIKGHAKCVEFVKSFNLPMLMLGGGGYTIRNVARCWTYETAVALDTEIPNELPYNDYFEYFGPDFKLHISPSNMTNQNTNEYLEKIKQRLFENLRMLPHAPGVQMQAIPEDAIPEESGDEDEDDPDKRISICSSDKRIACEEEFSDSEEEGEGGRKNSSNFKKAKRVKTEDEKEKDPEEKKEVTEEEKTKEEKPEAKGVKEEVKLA

For orientation: IC50 means the concentration that gives 50% inhibition. `C[C@@H]1CN(Cc2ccccc2)C[C@H](C)N1Cc1ccc(/C=C/C(=O)NO)cc1` [Compound 175, (E)-3-(4-(((2S,6R)-4-benzyl-2,6-dimethylpiperazin-1-yl)methyl)phenyl)-N-hydroxyacrylamide]: in assay [1], the “HDAC6 selectivity (fold)” value was determined as 90 fold and the IC50 was 68 nM. Besides, the half-inhibitory concentration (IC50) in assay [2] was found to be 6100 nM.

On to `C[C@@H]1CN(Cc2ccc(C(=O)NO)cc2)C[C@H](C)N1Cc1cocn1` [Compound 354, 4-(((3R,5S)-3,5-dimethyl-4-(oxazol-4-ylmethyl)piperazin-1-yl)methyl)-N-hydroxybenzamide], for which, in assay [1], the “HDAC6 selectivity (fold)” value is greater than 2000 fold and the 50% inhibitory concentration (IC50) amounted to 5 nM. Moreover, in assay [2], the IC50 is greater than 10000 nM.

Regarding `C[C@@H]1CN(C(=O)c2ccco2)C[C@H](C)N1Cc1ccc(C(=O)NO)cc1` [Compound 115, 4-(((2S,6R)-4-(furan-2-carbonyl)-2,6-dimethylpiperazin-1-yl)methyl)-N-hydroxybenzamide], in assay [1], the “HDAC6 selectivity (fold)” value is given as 18 fold and the concentration for half-maximal inhibition (IC50) worked out at 181 nM. In addition, in assay [2], the IC50 was 3200 nM.

`C[C@@H]1CN(Cc2ccc(-c3ccco3)cc2)C[C@H](C)N1Cc1ccc(/C=C/C(=O)NO)cc1` [Compound 477, (E)-3-(4-(((2S,6R)-4-(4-(furan-2-yl)benzyl)-2,6-dimethylpiperazin-1-yl)methyl)phenyl)-N-hydroxyacrylamide]: in assay [1], the “HDAC6 selectivity (fold)” value was determined as 11 fold and the half-inhibitory concentration (IC50) was determined as 253 nM. In addition, the concentration for half-maximal inhibition (IC50) in assay [2] came out at 2700 nM.

As for `C[C@@H]1CN(Cc2ccc(C(=O)NO)cc2)C[C@H](C)N1Cc1cccc(-c2ccco2)c1` [Compound 342, 4-(((3R,5S)-4-(3-(furan-2-yl)benzyl)-3,5-dimethylpiperazin-1-yl)methyl)-N-hydroxybenzamide], in assay [1], the “HDAC6 selectivity (fold)” value is reported as 456 fold and the concentration for half-maximal inhibition (IC50) was found to be 19 nM. In addition, the IC50 in assay [2] came out at 8700 nM.

Regarding `CC(CN(C)Cc1ccccc1)NCc1cccc(C(=O)N2[C@H](C)CN(Cc3ccc(C(=O)NO)cc3)C[C@@H]2C)c1` (stereo partly drawn) [Compound 441, 4-(((3R,5S)-4-(3-(((1-(benzyl(methyl)amino)propan-2-yl)amino)methyl)benzoyl)-3,5-dimethylpiperazin-1-yl)methyl)-N-hydroxybenzamide], in assay [1], the “HDAC6 selectivity (fold)” value was 154 fold and the IC50 worked out at 35 nM. For the same molecule, the IC50 in assay [2] was 5400 nM.

Turning to `C[C@@H]1CN(Cc2ccc(C(=O)NO)cc2)C[C@H](C)N1C(=O)c1ccc(CN2CCCC2)cc1` [Compound 461, 4-(((3R,5S)-3,5-dimethyl-4-(4-(pyrrolidin-1-ylmethyl)benzoyl)piperazin-1-yl)methyl)-N-hydroxybenzamide], in assay [1], the “HDAC6 selectivity (fold)” value stood at 18 fold and the IC50 came to 238 nM. For the same molecule, the IC50 in assay [2] amounted to 4200 nM.

Regarding `C[C@@H]1CN(Cc2ccc(C(=O)NO)cc2)C[C@H](C)N1C(=O)c1cccc(C2=CCOCC2)c1` [Compound 244, 4-(((3R,5S)-4-(3-(3,6-dihydro-2H-pyran-4-yl)benzoyl)-3,5-dimethylpiperazin-1-yl)methyl)-N-hydroxybenzamide], in assay [1], the “HDAC6 selectivity (fold)” value was 35 fold and the IC50 amounted to 97 nM. For the same molecule, the IC50 in assay [2] came out at 3400 nM.

Take `C[C@@H]1CN(Cc2ccc(C(=O)NO)cc2)C[C@H](C)N1C(=O)c1cccc(CN2CCCCC2)c1` [Compound 424, 4-(((3R,5S)-3,5-dimethyl-4-(3-(piperidin-1-ylmethyl)benzoyl)piperazin-1-yl)methyl)-N-hydroxybenzamide]: in assay [1], the “HDAC6 selectivity (fold)” value turned out to be 27 fold and the IC50 worked out at 43 nM. Further, the IC50 in assay [2] amounted to 1200 nM.

For the molecule `C[C@@H]1CN(Cc2ccc(C(=O)NO)cc2)C[C@H](C)N1Cc1ccc(CN2CCCCC2)cc1` [Compound 467, 4-(((3R,5S)-3,5-dimethyl-4-(4-(piperidin-1-ylmethyl)benzyl)piperazin-1-yl)methyl)-N-hydroxybenzamide], in assay [1], the “HDAC6 selectivity (fold)” value is reported as greater than 204 fold and the 50% inhibitory concentration (IC50) stood at 49 nM. The IC50 in assay [2] is greater than 10000 nM.

`CC(C)CCN1CCN(Cc2cccc(C(=O)N3[C@H](C)CN(Cc4ccc(C(=O)NO)cc4)C[C@@H]3C)c2)CC1` [Compound 442, N-hydroxy-4-(((3R,5S)-4-(3-((4-isopentylpiperazin-1-yl)methyl)benzoyl)-3,5-dimethylpiperazin-1-yl)methyl)benzamide]: in assay [1], the “HDAC6 selectivity (fold)” value came to 65 fold and the IC50 worked out at 120 nM. Further, the concentration for half-maximal inhibition (IC50) in assay [2] was found to be 7800 nM.

Consider `C[C@@H]1CN(Cc2ccc(C(=O)NO)cc2)C[C@H](C)N1C(=O)c1ccccc1Cl` [Compound 120, 4-(((3R,5S)-4-(2-chlorobenzoyl)-3,5-dimethylpiperazin-1-yl)methyl)-N-hydroxybenzamide], for which the “HDAC6 selectivity (fold)” value in assay [1] was found to be 304 fold. Also, the IC50 was 18 nM in assay [1] and 5500 nM in assay [2].

Regarding `CCN(CC)Cc1cccc(CN2C[C@@H](C)N(Cc3ccc(/C=C/C(=O)NO)cc3)[C@@H](C)C2)c1` [Compound 476, (E)-3-(4-(((2S,6R)-4-(3-((diethylamino)methyl)benzyl)-2,6-dimethylpiperazin-1-yl)methyl)phenyl)-N-hydroxyacrylamide], the “HDAC6 selectivity (fold)” value in assay [1] is reported as 6 fold. Also, the half-maximal inhibitory concentration (IC50) in assay [1] turned out to be 142 nM; in assay [2] it was 900 nM.

As for `Cc1nccn1-c1ccccc1CN1C[C@@H](C)N(Cc2ccc(C(=O)NO)cc2)[C@@H](C)C1` [Compound 305, 4-(((2S,6R)-2,6-dimethyl-4-(2-(2-methyl-1H-imidazol-1-yl)benzyl)piperazin-1-yl)methyl)-N-hydroxybenzamide], in assay [1], the “HDAC6 selectivity (fold)” value amounted to 174 fold and the IC50 turned out to be 32 nM. Besides, the concentration for half-maximal inhibition (IC50) in assay [2] amounted to 5600 nM.

As for `C[C@@H]1CN(Cc2ccc(C(=O)NO)cc2)C[C@H](C)N1C(=O)CCc1ccccc1` [Compound 188, 4-(((3R,5S)-3,5-dimethyl-4-(3-phenylpropanoyl)piperazin-1-yl)methyl)-N-hydroxybenzamide], in assay [1], the “HDAC6 selectivity (fold)” value worked out at 71 fold and the IC50 stood at 191 nM. Besides, in assay [2], the concentration for half-maximal inhibition (IC50) stood at 13600 nM.

`C[C@@H]1CN(Cc2ccc(C(=O)NO)cc2)C[C@H](C)N1C(=O)C1CCCO1` (stereo partly drawn) [Compound 402, 4-(((3R,5S)-3,5-dimethyl-4-(tetrahydrofuran-2-carbonyl)piperazin-1-yl)methyl)-N-hydroxybenzamide]: in assay [1], the “HDAC6 selectivity (fold)” value is recorded as 32 fold and the IC50 was found to be 161 nM. Further, the 50% inhibitory concentration (IC50) in assay [2] was found to be 5200 nM.

For the molecule `C[C@@H]1CN(Cc2cccc(-n3cccc3)c2)C[C@H](C)N1Cc1ccc(C(=O)NO)cc1` [Compound 256, 4-(((2S,6R)-4-(3-(1H-pyrrol-1-yl)benzyl)-2,6-dimethylpiperazin-1-yl)methyl)-N-hydroxybenzamide], in assay [1], the “HDAC6 selectivity (fold)” value is listed as 15 fold. Besides, the half-inhibitory concentration (IC50) in assay [1] amounted to 303 nM; in assay [2], 4600 nM.

Turning to `C[C@@H]1CN(Cc2ccc(C(=O)NO)cc2)C[C@H](C)N1Cc1cccc(CN2CCOCC2)c1` [Compound 356, 4-(((3R,5S)-3,5-dimethyl-4-(3-(morpholinomethyl)benzyl)piperazin-1-yl)methyl)-N-hydroxybenzamide], the “HDAC6 selectivity (fold)” value in assay [1] was found to be 558 fold. The IC50 is 22 nM in assay [1] and 12300 nM in assay [2].

Consider `C[C@@H]1CN(Cc2ccccc2-c2ccncc2)C[C@H](C)N1Cc1ccc(C(=O)NO)cc1` [Compound 350, 4-(((2S,6R)-2,6-dimethyl-4-(2-(pyridin-4-yl)benzyl)piperazin-1-yl)methyl)-N-hydroxybenzamide], for which, in assay [1], the “HDAC6 selectivity (fold)” value was determined as 17 fold and the half-maximal inhibitory concentration (IC50) turned out to be 194 nM. Also, in assay [2], the IC50 came out at 3300 nM.

Turning to `COc1ccc(C(=O)N2[C@H](C)CN(Cc3ccc(C(=O)NO)cc3)C[C@@H]2C)cc1` [Compound 291, N-hydroxy-4-(((3R,5S)-4-(4-methoxybenzoyl)-3,5-dimethylpiperazin-1-yl)methyl)benzamide], in assay [1], the “HDAC6 selectivity (fold)” value turned out to be 24 fold and the concentration for half-maximal inhibition (IC50) is 55 nM. Also, the half-maximal inhibitory concentration (IC50) in assay [2] turned out to be 1300 nM.
